Our source for the kinact/KI values is patent EP0595557A1, “New substituted azetidinones as anti-inflammatory and antidegenerative agents” (MERCK & CO. INC., priority 1992, dated 1994).

In the assay the target is T1, Human Polymorphonuclear Leukocyte Elastase (Homo sapiens, UniProt P08246).
T1 construct: Crude extract of human polymorphonuclear leukocytes (PMN) containing elastase activity; from tissue; host or cells: human polymorphonuclear leukocytes (crude extract)
T1 sequence (P08246 30-267): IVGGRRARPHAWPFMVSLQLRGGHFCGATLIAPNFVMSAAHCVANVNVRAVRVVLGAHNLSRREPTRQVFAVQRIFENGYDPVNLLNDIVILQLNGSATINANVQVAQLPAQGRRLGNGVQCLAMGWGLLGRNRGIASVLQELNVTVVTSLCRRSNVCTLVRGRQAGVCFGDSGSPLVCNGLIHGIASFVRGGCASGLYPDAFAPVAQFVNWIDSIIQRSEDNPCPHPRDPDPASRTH
The assay is described as follows: Enzyme assay for inhibition of human polymorphonuclear leukocyte elastase via hydrolysis of Boc-AAPAN or Boc-AAPVN. The class given is biochemical. The settings on record: pH 7.5, second order rate constant for inactivation of the enzyme, expressed to the nearest thousand, read-out: Kobs/[I]. The essentials:
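Crude human PMN extract as enzyme source, with 0.2 mM Boc-AAPAN in 0.05M TES buffer pH 7.5. Inhibitors in DMSO were added to substrate before the extract, and rate was followed as ΔOD/min at 410 mµ. Values are kobs/I, the second-order inactivation rate constant (per mole per second).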
With `CCC[C@@H](NC(=O)N1C(=O)C(CC)(CC)[C@@H]1Oc1ccc(CC(N)=O)cc1)c1ccc(C(=O)N2CCOCC2)cc1` [Compound 274], the kinact/KI was determined as 430000 M⁻¹ s⁻¹.
On to `CCC[C@@H](NC(=O)N1C(=O)C(CC)(CC)[C@@H]1Oc1ccc(C(=O)NCCN2CCC(O)C2)cc1)c1ccc(C)cc1` (stereo partly drawn) [Compound 131], for which the kinact/KI was determined as 1.11e+06 M⁻¹ s⁻¹.
The value for `CCC[C@@H](NC(=O)N1C(=O)C(CC)(CC)[C@@H]1Oc1ccc(C(=O)N2CCN(c3ccc(F)cc3)CC2)cc1)c1ccc(C)cc1` [Compound 243] was 7.49e+06 M⁻¹ s⁻¹; that for `CCC[C@@H](NC(=O)N1C(=O)C(CC)(CC)[C@@H]1Oc1ccc(C(=O)NCCn2ncnn2)cc1)c1ccc(C)cc1` [Compound 100] was 2.01e+06 M⁻¹ s⁻¹; that for `CCC[C@@H](NC(=O)N1C(=O)C(CC)(CC)[C@@H]1Oc1ccc(C(=O)N(C)CCN(C)Cc2ccccc2Cl)cc1)c1ccc(C)cc1` [Compound 204] was 1.59e+06 M⁻¹ s⁻¹.
On to `CCC[C@@H](NC(=O)N1C(=O)C(CC)(CC)[C@@H]1Oc1ccc(C(=O)N(C)CCN(C)CC(=O)OC(C)(C)C)cc1)c1ccc(C)cc1` [Compound 171], for which the kinact/KI is 1.83e+06 M⁻¹ s⁻¹.
The value for `CCC[C@@H](NC(=O)N1C(=O)C(CC)(CC)[C@@H]1Oc1ccc(C(=O)OCC(=O)N2CCC[C@H]2C(=O)OCc2ccccc2)cc1)c1ccc(C)cc1` [Compound 8] was 1.25e+07 M⁻¹ s⁻¹; that for `CCC[C@@H](NC(=O)N1C(=O)C(CC)(CC)[C@@H]1Oc1ccc(C(=O)N(C)CCN(CC)CC)cc1)c1ccc(C)cc1` [Compound 81] was 2.19e+06 M⁻¹ s⁻¹; that for `CCC[C@@H](NC(=O)N1C(=O)C(CC)(CC)[C@@H]1Oc1ccc(C(=O)NCCN2CCS(=O)(=O)CC2)cc1)c1ccc(C)cc1` [Compound 109] was 1.28e+06 M⁻¹ s⁻¹.
The value for `CCC[C@@H](NC(=O)N1C(=O)C(CC)(CC)[C@@H]1Oc1ccc(C(=O)N(CCN(C)Cc2ccccc2)Cc2cccnc2)cc1)c1ccc(C)cc1` [Compound 191] was 2.54e+06 M⁻¹ s⁻¹; that for `CCC[C@@H](NC(=O)N1C(=O)C(CC)(CC)[C@@H]1Oc1ccc(C(=O)N2CCOCC2)cc1)c1ccc(C)cc1` [Compound 199] was 2.38e+06 M⁻¹ s⁻¹.
`CCC[C@@H](NC(=O)N1C(=O)C(CC)(CC)[C@@H]1Oc1ccc(C(=O)NCCN2CCCCCC2)cc1)c1ccc(C)cc1` [Compound 121]: the kinact/KI came to 2.07e+06 M⁻¹ s⁻¹.
Consider `CCC[C@@H](NC(=O)N1C(=O)C(CC)(CC)[C@@H]1Oc1ccc(CC(=O)N(CCO)CCO)cc1)c1ccc(C)cc1` [Compound 40], for which the kinact/KI was 1.24e+06 M⁻¹ s⁻¹.
Then `CCC[C@@H](NC(=O)N1C(=O)C(CC)(CC)[C@@H]1Oc1ccc(C(=O)N(C)CCCN(C)C)cc1)c1ccc(C)cc1` [Compound 83], with 1.8e+06 M⁻¹ s⁻¹.
Then `CCC[C@@H](NC(=O)N1C(=O)C(CC)(CC)[C@@H]1Oc1ccc(C(=O)N(C)CC[N+](C)(C)[O-])cc1)c1ccc(C)cc1` [Compound 85], with 1.59e+06 M⁻¹ s⁻¹; and `CCC[C@@H](NC(=O)N1C(=O)C(CC)(CC)[C@@H]1Oc1ccc(C(=O)N(C)C2CCNCC2)cc1)c1ccc(C)cc1` [Compound 211], with 85000 M⁻¹ s⁻¹.
As to `CCC[C@@H](NC(=O)N1C(=O)C(CC)(CC)[C@@H]1Oc1ccc(C(=O)N2CC(C)NC(C)C2)cc1)c1ccc(C)cc1` (stereo partly drawn) [Compound 146], the kinact/KI turned out to be 1.52e+06 M⁻¹ s⁻¹.
The value for `CCC[C@@H](NC(=O)N1C(=O)C(CC)(CC)[C@@H]1Oc1ccc(C(=O)N2CCN(C(C)C)CC2)cc1)c1ccc(C)cc1` [Compound 248] was 2.39e+06 M⁻¹ s⁻¹; that for `CCC[C@@H](NC(=O)N1C(=O)C(CC)(CC)[C@@H]1Oc1ccc(C(=O)N(C)CCN(C)Cc2ccccc2)cc1)c1ccc2c(c1)OCO2` [Compound 264] was 3.43e+06 M⁻¹ s⁻¹.
The value for `CCC[C@@H](NC(=O)N1C(=O)C(CC)(CC)[C@@H]1Oc1ccc(CC(N)=O)cc1)c1ccc2c(c1)OCO2` [Compound 257] was 2.34e+06 M⁻¹ s⁻¹.
The value for `CCC[C@@H](NC(=O)N1C(=O)C(CC)(CC)[C@@H]1Oc1ccc(C(=O)N(C)CCN(C)C)cc1)c1ccc(C#N)cc1` [Compound 295] was 846000 M⁻¹ s⁻¹.
Consider `CCC[C@@H](NC(=O)N1C(=O)C(CC)(CC)[C@@H]1Oc1ccc(C(=O)NC)cc1)c1ccc(C)cc1` [Compound 198], for which the kinact/KI worked out at 1.82e+06 M⁻¹ s⁻¹.
Then `CCC[C@@H](NC(=O)N1C(=O)C(CC)(CC)[C@@H]1Oc1ccc(C(=O)OCC(c2ccccc2)N(C)C)cc1)c1ccc(C)cc1` (stereo partly drawn) [Compound 30, 2-(dimethylamino)-2-phenylethyl [S-(R*,S*)]-4-[[3,3-diethyl-1-[[[1-(4-methylphenyl)butyl]amino]carbonyl]-4-oxo-2-azetidinyl]oxy]benzoate], with 656000 M⁻¹ s⁻¹.
Then `CCC[C@@H](NC(=O)N1C(=O)C(CC)(CC)[C@@H]1Oc1ccc(CC(=O)N(C)CCCN(C)C)cc1)c1ccc(C)cc1` [Compound 56], with 1.05e+06 M⁻¹ s⁻¹; and `CCC[C@@H](NC(=O)N1C(=O)C(CC)(CC)[C@@H]1Oc1ccc(C(=O)N2CCc3cc(OC)c(OC)cc3C2)cc1)c1ccc(C)cc1` [Compound 207], with 2.7e+06 M⁻¹ s⁻¹; and `CCC[C@@H](NC(=O)N1C(=O)C(CC)(CC)[C@@H]1Oc1ccc(C(=O)N2CCC[C@H]2CN2CCCC2)cc1)c1ccc(C)cc1` [Compound 119], with 2.69e+06 M⁻¹ s⁻¹.
Then `CCC[C@@H](NC(=O)N1C(=O)C(CC)(CC)[C@@H]1Oc1ccc(C(=O)N(C)c2ccc(C(=O)NS(=O)(=O)c3ccccc3)cc2)cc1)c1ccc(C)cc1` [Compound 176], with 3.23e+06 M⁻¹ s⁻¹.
For the compound `CCC[C@@H](NC(=O)N1C(=O)C(CC)(CC)[C@@H]1Oc1ccc(C(=O)N2CCCCC2CO)cc1)c1ccc(C)cc1` (stereo partly drawn) [Compound 228], the kinact/KI is 50000 M⁻¹ s⁻¹.
Turning to `CCC[C@@H](NC(=O)N1C(=O)C(CC)(CC)[C@@H]1Oc1ccc(CC(=O)N2CCOCC2)cc1)c1ccc(C)cc1` [Compound 42], the kinact/KI was 1.09e+06 M⁻¹ s⁻¹.
For `CCC[C@@H](NC(=O)N1C(=O)C(CC)(CC)[C@@H]1Oc1ccc(CC(=O)N(CC)CC)cc1)c1ccc(C)c(C(=O)N(CCC)CCC)c1` [Compound 293], the kinact/KI amounted to 457000 M⁻¹ s⁻¹.
Regarding `CCC[C@@H](NC(=O)N1C(=O)C(CC)(CC)[C@@H]1Oc1ccc(CC(=O)N2CCOCC2)cc1)c1ccc(C)c(C(=O)N(CCC)CCC)c1` [Compound 294], the kinact/KI turned out to be 255000 M⁻¹ s⁻¹.
Regarding `CCC[C@@H](NC(=O)N1C(=O)C(CC)(CC)[C@@H]1Oc1ccc(C(=O)N(C)CCN(C)C2C3CC4CC(C3)CC2C4)cc1)c1ccc(C)cc1` (stereo partly drawn) [Compound 210], the kinact/KI amounted to 2.13e+06 M⁻¹ s⁻¹.
As to `CCC[C@@H](NC(=O)N1C(=O)C(CC)(CC)[C@@H]1Oc1ccc(C(=O)NCCn2ccnc2)cc1)c1ccc(C)cc1` [Compound 97], the kinact/KI stood at 1.07e+06 M⁻¹ s⁻¹.
`CCC[C@@H](NC(=O)N1C(=O)C(CC)(CC)[C@@H]1Oc1ccc(C(=O)N(C)CCN2CCC(OCc3ccccc3)CC2)cc1)c1ccc(C)cc1` [Compound 126]: the kinact/KI stood at 3.48e+06 M⁻¹ s⁻¹.
Then `CCC[C@@H](NC(=O)N1C(=O)C(CC)(CC)[C@@H]1Oc1ccc(C(=O)N2CCC[C@H]2CN(C)Cc2ccccc2)cc1)c1ccc(C)cc1` [Compound 149], with 3.27e+06 M⁻¹ s⁻¹; and `CCC[C@@H](NC(=O)N1C(=O)C(CC)(CC)[C@@H]1Oc1ccc(C(=O)OCCN2CCOCC2)cc1)c1ccc(C)cc1` [Compound 17, 2-(1-[4-morpholino]ethyl) [S-(R*,S*)]-4-[[3,3-diethyl-1-[[[1-(4-methyl-phenyl)butyl]amino]carbonyl]-4-oxo-2-azetidinyl]oxy]benzoate], with 4.73e+06 M⁻¹ s⁻¹.
